# Experimental data: US8765803B1, “Rab7 GTPase inhibitors and related methods of treatment” (STC.UNM, priority 2011, dated 2014)
# “And” between values parts separate entries of the source, which are not always exact repeats. Equal values may be shown once. Read-outs that look alike come from different tables or passages of the source.
# How the values were obtained:
# Rab7 wt [1] = experiment: Equilibrium binding with varying fluorescent nucleotide at fixed CID1067700 concentration
# Description: Dose response assays were conducted in two different modes. […].
# […]. […] […].
# [2] = test system: EGFR degradation in SCC-12F cells; experiment: EGFR degradation in SCC-12F cells; type: cell-based; settings: human keratinocytes (SCC-12F), 10-100 μM
# Description: SCC-12F cells were seeded in 12-well plates at 0.12×10^6 cells/well and allowed to grow overnight. On the day of the experiment, the cells were starved in serum free medium containing 25 μg/mL cycloheximide for 2 h before compounds at different concentrations were added. The cells were treated for 30 min. Then, ligand EGF was added to 20 nM. At time points of 0, 15, 30, 60, and 120 min after the EGF addition, the suspension medium was removed and the cell was quickly washed with cold PBS and frozen at −80° C. For electrophoresis and blotting, CelLytic™M Cell Lysis buffer containing protease inhibitor cocktails was added to the frozen cells to obtain the cell lysates according to the protocols from the manufacture. Protein concentration was quantified using BCA assay kit. For SDS-PAGE, 10 μg protein was loaded to each lane and proteins transferred to nitrocellulose. The nitrocellulose membranes were probed with antibodies directed against EGFR or actin and detected using peroxidase conjugated secondary antibodies and SuperSignal West Dura. Signal intensities were measured and quantified using a ChemiDoc™ XRS+ molecular imager coupled with Image Lab software.
# [3] = test system: EGFR degradation in HeLa-Rab7 wt cells; experiment: EGFR degradation in Rab7 overexpressing HeLa cells; type: cell-based, human; settings: 100 μM
# Description: EGFR degradation was also monitored in HeLa cells with some minor modifications. […] Cell lysates were prepared at various time points and immunoblotted for total EGFR while actin served as a loading control.
# VLA-4 integrin = experiment: LDV binding assay in U937 ΔST cells; type: cell-based; settings: FITC-LDV 4 nM, after N-formyl peptide stimulation
# Description: The procedure followed the established protocols described previously. U937 ΔST cells (0.4−0.8×10^6 cells/mL) were constantly stirred with a magnetic stir bar at 500 rpm in a test tube. The fluorescence was recorded on a FACScan flow cytometer. The base line fluorescence of the cells was established for 30s. FITC-LDV at a concentration of 4 nM was then added. After the fluorescence stabilized at around 120s, the chemotactic ligand N-formyl peptide was added for stimulation resulting activation of VLA-4 integrin and additional FITC-LDV binding. […] Fluorescence was continually recorded until no further change was observed. The inhibition percentage was calculated according to Equation 1.
# U937 cells = experiment: Cytotoxicity of compounds, cell density and viability; type: cell-based
# Description: U937 cells were grown to a density of 0.4×10^6 cells/mL Compounds were added to a final concentration of 20 μM or otherwise indicated. As a control, cells were treated with DMSO of the same volume. After 24 h incubation, the density and viability of the cells were measured with Countess Cell Counter according to the protocols from the manufacturer.
# [4] = Solubility in PBS and assay media, UV absorbance detection; type: physicochemical; settings: read-out: Solubility
# Description: Solubility was measured in phosphate buffered saline (PBS) at room temperature (23° C.). PBS by definition is 137 mM NaCl, 2.7 mM KCl, 10 mM sodium phosphate dibasic, 2 mM potassium phosphate monobasic and a pH of 7.4. Detection was based on UV absorbance. […]. Solubility was also assessed in the each of the four media used in the individual assays. […]
# [5] = Stability in PBS at room temperature; type: physicochemical; settings: 23° C., after 48 hours, no antioxidants, DMSO below 0.1%
# Description: Stability, depicted as closed circles in the graph, was assessed at room temperature (23° C.) in PBS (no antioxidants or other protectants and DMSO concentration below 0.1%). Stability data is depicted as a graph showing the loss of compound with time over a 48 hr period with a minimum of 6 time points and providing the percent remaining compound at end of the 48 hr period.
# [6] = Chemical stability towards L-glutathione in DMSO, LCMS; type: physicochemical; settings: 1.2-3.0 eq L-glutathione in DMSO, 37° C., up to 72 h
# Description: The three experiments were monitored by LCMS at each of the following time points: 1 h, 2 h, 4 h, 24 h, 48 h, and 72 h. Procedure: […]
# [7] = test system: Ras-related GTPases (Cdc42 wt, Rac1wt, Rac1Q61L, Rab2 wt, Rab7 wt, and H-Ras wt); settings: secondary multiplex dose response
# Description: The eight GTPases were grouped into two sets: Rab7, H-Ras wild type and its V12 mutant, and Cdc42 and its L61 mutant were assayed in a buffer containing 1 mM EDTA, while Rho, Rac1 and its L61 mutant, and Cdc42 and its L61 mutant were assayed in the same buffer but instead containing 1 mM Mg^2+ with Cdc42 and its mutant being tested in both buffers. Besides 1 mM EDTA or 1 mM Mg^2+, the buffer contained 30 mM HEPES, pH 7.5, 40 mM KCl, 100 mM NaCl, 0.1% (v/v) NP-40 and 1% BSA. For each multiplex reaction, an extra set of beads was included to serve as scavengers to bind any proteins that dissociate from their assigned bead set and thereby reduce interference due to protein dissociation during the assay. […] Briefly, each individual GST-tagged enzyme was incubated with 4 μm glutathione-coated microsphere beads overnight with gentle rotation. The microsphere beads have different red fluorescence dyes incorporated and therefore could be separated by a flow cytometer. The unbound enzyme was removed by sufficient washing with the buffer. The bead sets were then combined and dispensed to 384-well plates at 5 μL/well. For one plate, 0.5 μg each of the enzymes and 4.0×10^4 of each bead were used. Then 100 nL compound was added using Biomek FX followed by the addition of 5 μL/well of BODIPY-FL-GTP (ribose-linked BODIPY). […] The beads were aspirated and delivered with the HyperCyt® instrument and read on CyAnADP flow cytometer. Forward scatter and side scatter was used to define the whole bead population. […] The data was analyzed by the HyperView® software developed by Dr. Bruce Edward at the University of New Mexico.
# Briefly, six sets of beads (each with a unique red fluorescence intensity) were individually coated with six representative GST-tagged Ras-related GTPases (Cdc42 wt, Rac1wt, Rac1Q61L, Rab2 wt, Rab7 wt, and H-Ras wt) (FIG. 29A). The individually conjugated beads were then assayed in the presence of individual compounds in the Molecular Libraries Small Molecule Repository using a HyperCyt flow cytometry to identify molecules that altered the binding of fluorescent nucleotide to Ras-family GTPases (36).
# Rab7 wt [8] = experiment: Nucleotide dissociation assay under equilibrium conditions; settings: CID1067700 10 μM, compared with unlabeled GDP 10 μM
# Description: This low level bead associated fluorescence was subtracted from specific binding to obtain accurate measurement of the off rates. Data normalization was performed by subtracting dilution only values from competitor treated experimental values.
# The experiment was carried out by pre-binding BODIPY-GTP or BODIPY-GDP to GST-tagged Rab7 protein to equilibrium and then assaying for the loss of fluorescence over time occasioned by the release of bound nucleotide (FIG. 31A-D). […] Dissociation rate constants were calculated from data fit to exponential functions using Prism software.
structure (smiles),measurement,setting,value
"CC1(C)Cc2c(sc(NC(=S)NC(=O)c3ccccc3)c2C(=O)O)CO1 [CID1067700, 2-(3-benzoylthioureido)-5,5-dimethyl-5,7-dihydro-4H-thieno[2,3-c]pyran-3-carboxylic acid]",Increase of Ki (Cheng Prusoff) between inhibition of BODIPY-GTP and BODIPY-GDP,Rab7 wt [1],2 fold
same,Effect on Rab7 wt Bmax for BODIPY-GTP,Rab7 wt [1]; CID1067700 100 nM,does not alter
same,Effect on Rab7 wt Bmax for BODIPY-GDP,Rab7 wt [1]; CID1067700 200 nM,does not alter
same,Increase in observed EC50 for both nucleotides in the presence of CID1067700,Rab7 wt [1]; CID1067700 fixed at 100-200 nM,≤ 3 fold
same,Growth factor receptor (EGFR) degradation,[2],decreased
same,Growth factor receptor (EGFR) degradation,[3],decreased
same,VLA4 binding with LDV peptide,VLA-4 integrin,inhibits
same,Cell viability of U937 cells after treatment,"U937 cells; 24 h, 20 μM",94%
same,Cytotoxicity in U937 cells,U937 cells; 24 h in growth medium,no obvious cytotoxicity
same,solubility,"[4]; Dose Response-EDTA buffer, pH 7.5, aqueous with cosolvent or surfactant or cyclodextrin, Dose Response-EDTA buffer: 30 mM HEPES, pH 7.5, 100 mM KCl, 20 mM NaCl, 0.01% NP-40, 1 mM EDTA",69.7 µg/mL
same,solubility,"[4]; Dose Response-EDTA buffer, pH 7.5, aqueous with cosolvent or surfactant or cyclodextrin, Dose Response-EDTA buffer",178 µM
same,solubility,"[4]; Dose Response-Mg buffer, pH 7.5, aqueous with cosolvent or surfactant or cyclodextrin, Dose Response-Mg buffer: 30 mM HEPES, pH 7.5, 100 mM KCl, 20 mM NaCl, 0.01% NP-40, 1 mM MgCl2",68.1 µg/mL
same,solubility,"[4]; Dose Response-Mg buffer, pH 7.5, aqueous with cosolvent or surfactant or cyclodextrin, Dose Response-Mg buffer",174 µM
same,solubility,"[4]; phosphate buffered saline (PBS), 23 °C, pH 7.4, aqueous buffer, 1 × PBS, pH 7.4, room temperature (23° C.)",> 116 µg/mL and > 297 µM
same,Percent remaining compound,[5],77%
same,Glutathione conjugate formation by LCMS,[6],did not result in LCMS detection of any conjugates or other product peaks
same,Glutathione conjugate formation by LCMS,[6]; listed as SID 85747738,No glutathione conjugate or other peaks were observed
same,EC50,"[7]; read-out: EC50 against all tested GTPases, fluorescent GTP",20 to 500 nM
same,Inhibition against all tested GTPases,[7],at least 40%
same,Effect on rate of release of bound BODIPY-GTP or BODIPY-GDP,Rab7 wt [8],no effect
